Measurements published in patent US6365572B1, “Low molecular weight peptide derivatives as inhibitors of the laminin/nidogen interaction” (Aventis Pharma Deutschland GmbH, priority 1999, dated 2002).
Like-named read-outs stand apart in the source and are kept apart here. Non-standard residues stand in square brackets, D forms with d. Residues, ends and D or L forms follow the SMILES beside them. *: point of attachment. Bip = N[C@@H](Cc1ccc(-c2ccccc2)cc1)C(=O)O; 1Nal = N[C@@H](Cc1cccc2ccccc12)C(=O)O; 2Nal = N[C@@H](Cc1ccc2ccccc2c1)C(=O)O; Bta = N[C@@H](Cc1csc2ccccc12)C(=O)O; NH(3-hydroxypropyl) = OCCCN*

Molecular target: T1, laminin/nidogen interaction (laminin P1, recombinantly produced human nidogen) (Homo sapiens, UniProt P14543)
T1 construct: made in house; host or cells: HEK-293
T1 sequence (P14543 29-1247): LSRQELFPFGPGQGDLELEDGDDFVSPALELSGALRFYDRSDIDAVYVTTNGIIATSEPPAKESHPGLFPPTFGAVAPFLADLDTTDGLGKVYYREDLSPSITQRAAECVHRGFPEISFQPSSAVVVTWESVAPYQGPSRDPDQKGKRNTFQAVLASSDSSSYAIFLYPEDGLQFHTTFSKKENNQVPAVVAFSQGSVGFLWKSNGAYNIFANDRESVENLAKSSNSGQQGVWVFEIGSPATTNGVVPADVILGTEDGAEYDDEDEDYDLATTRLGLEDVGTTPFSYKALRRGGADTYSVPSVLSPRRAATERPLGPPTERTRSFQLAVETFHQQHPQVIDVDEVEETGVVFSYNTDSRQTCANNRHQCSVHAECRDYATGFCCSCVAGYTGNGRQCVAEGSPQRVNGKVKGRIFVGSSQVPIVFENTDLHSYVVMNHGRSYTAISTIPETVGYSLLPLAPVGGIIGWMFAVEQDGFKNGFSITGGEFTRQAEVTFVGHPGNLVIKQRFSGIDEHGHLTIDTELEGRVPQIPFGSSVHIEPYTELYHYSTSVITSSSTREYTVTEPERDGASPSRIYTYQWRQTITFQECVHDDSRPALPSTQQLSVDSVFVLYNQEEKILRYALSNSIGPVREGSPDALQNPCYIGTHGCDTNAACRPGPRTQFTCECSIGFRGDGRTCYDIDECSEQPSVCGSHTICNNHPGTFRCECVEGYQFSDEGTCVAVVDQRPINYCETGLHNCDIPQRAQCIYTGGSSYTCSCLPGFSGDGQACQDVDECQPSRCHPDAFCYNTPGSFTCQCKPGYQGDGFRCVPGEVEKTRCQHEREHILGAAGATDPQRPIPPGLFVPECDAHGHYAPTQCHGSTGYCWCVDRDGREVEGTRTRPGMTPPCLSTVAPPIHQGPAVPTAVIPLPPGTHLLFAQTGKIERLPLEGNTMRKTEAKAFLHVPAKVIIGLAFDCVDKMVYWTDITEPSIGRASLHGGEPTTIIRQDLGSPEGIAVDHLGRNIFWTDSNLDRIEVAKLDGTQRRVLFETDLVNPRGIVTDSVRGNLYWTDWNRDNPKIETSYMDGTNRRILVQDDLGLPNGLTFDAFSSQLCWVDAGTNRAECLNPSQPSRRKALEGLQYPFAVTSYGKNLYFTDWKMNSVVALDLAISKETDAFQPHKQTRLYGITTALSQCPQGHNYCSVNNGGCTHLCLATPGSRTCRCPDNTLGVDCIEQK
Assay: HTS screening assay (time-resolved fluorescence), inhibition of laminin/nidogen binding
Settings: read-out: IC50
Method: 5) The compound stocks were preincubated with nidogen (10 μl compound stock to 90 μl nidogen solution) and the assay was performed as described in the attached protocol, yielding a final screening concentration of 2.7 μM per compound. The isolation of laminin P1 from human placenta, human nidogen from transfected HEK-293 cells and mouse laminin γ1III 3-5 from HEK-293 cells is described in WO 98/31709. 3.1.1. HTS screening assay (highly sensitive assay variant): Time-Resolved Fluorescence Assay Coating of test tubes Microtiter plates (for example FluoroNunc®) were coated with 75 μl of a 0.1 μg/ml solution of laminin P1 (in 0.159 g of Na2CO3, 0.293 g of NaHCO3, 0.02 g of NaN3/liter, pH 9.2) at room temperature for 1 hour. The solution was then tipped off, and free binding sites were blocked by incubation with 0.5% BSA (in 7.9 g of NaCl, 1.2 g of Na2HPO4, 0.31 g of KCl, 0.23 g of NaH2PO4, 0.04% Tween 20/liter, pH 7.2) at room temperature for 0.5 hour. Completion of the blocking reaction was followed by decantation of the solution and washing once with 250 μl of washing buffer (PBS/0.04% Tween). Sequential inhibition In parallel with the coating, a preincubation of 85-100 μl of a 0.25 nM nidogen solution (recombinantly produced human nidogen) with inhibitor or standard was carried out in a separate reaction vessel (1 hour at room temperature in 7.9 g of NaCl, 1.2 g of Na2HPO4, 0.31 g of KCl, 0.23 g of NaH2PO4, 0.04% Tween 20/liter, 0.5% BSA, pH 7.2). 75 μl of the preincubation (nidogen+inhibitor or standard) were transferred into the coated wells of the microtiter plate and incubated at room temperature for 1 hour. This was followed by washing twice with PBS/0.04% Tween. Detection of the bound nidogen took place by incubation (at room temperature) for 1 hour with 75 μl of a specific antibody preparation obtained from yolks of eggs from a chicken immunized with human nidogen. The IgY fraction was used in a dilution of 1:500 in PBS/0.04% Tween. The complex of nidogen and specifically bound antibodies was, after washing twice with PBS/0.04% Tween, detected by adding anti-chicken IgY-biotin (75 μl of a 1:2500 dilution; Promega, Madison, Wis. 53711, 608-274-4330). An incubation time of 1 hour and washing twice with PBS/0.04% Tween were followed for this purpose by incubation with streptavidin-europium (Wallac; 1 hour at room temperature) and washing twice with PBS/0.04% Tween. It was finally possible, after adding 100 μl of enhancement solution (Wallac) and shaking for 5 minutes, to measure a fluorescence signal in a Victor multilabel counter using the europium protocol. The relation between the amount, of bound nidogen in the solutions with inhibitor and that of nidogen without added inhibitor was found.

[1] = results table 1.3, synthesized compounds 1 to 43
[2] = hit structures recovered from the pentamer library screening

`CC(C)[C@H](NC(=O)[C@H](C)NC(=O)[C@H](CC(N)=O)NC(=O)C1[C@@H](c2ccc3ccccc3c2)CCN1C(=O)CCC(=O)O)C(N)=O` (stereo in doubt) [Compound 34, Succinyl-L-(3R)-(2-naphthyl)prolyl-L-asparaginyl-L-alanyl-L-valine-amide] was tested, and the IC50 [1] was 27 nM.

In the case of `CC[C@H](C)[C@H](NC(=O)[C@@H](N)CC(N)=O)C(=O)N[C@@H](CC(=O)O)C(=O)N1CCC[C@H]1C(=O)N[C@@H](CC(N)=O)C(=O)N[C@@H](C)C(=O)N[C@H](C(=O)NCC(=O)NCCCO)C(C)C` [Compound 1, L-Asparaginyl-L-isoleucyl-L-aspartyl-L-prolyl-L-asparaginyl-L-alanyl-L-valyl-glycine-3-hydroxypropylamide, reference compound] (H-NIDPNAVG-{NH(3-hydroxypropyl)}), the IC50 [1] is reported as 3900 nM.

`CC(C)[C@H](NC(=O)[C@H](C)NC(=O)[C@H](CC(N)=O)NC(=O)[C@@H]1CCCN1C(=O)[C@@H](N)CC(=O)O)C(=O)NCC(=O)NCCCO` [Compound 2, L-Aspartyl-L-prolyl-L-asparaginyl-L-alanyl-L-valyl-glycine-3-hydroxypropylamide, reference compound] (H-DPNAVG-{NH(3-hydroxypropyl)}) was tested, and the IC50 [1] was 7700 nM.

`CC(C)[C@H](NC(=O)[C@H](CC(=O)O)NC(=O)[C@H](CC(N)=O)NC(=O)[C@H](Cc1ccc2ccccc2c1)NC(=O)[C@@H](N)CC(=O)O)C(=O)NCC(=O)NCCCO` [Compound 3, L-Aspartyl-L-3-(2-naphthyl)alanyl-L-asparaginyl-L-aspartyl-L-valyl-glycine-3-hydroxypropylamide] (H-D[2Nal]NDVG-{NH(3-hydroxypropyl)}) was tested, and the IC50 [2] was 430 nM and the IC50 [1] was 510 nM.

Compound `CC(C)[C@H](NC(=O)[C@H](CO)NC(=O)[C@H](CC(N)=O)NC(=O)[C@H](Cc1ccc2ccccc2c1)NC(=O)[C@@H](N)CC(=O)O)C(=O)NCC(=O)NCCCO` [Compound 4, L-Aspartyl-L-3-(2-naphthyl)alanyl-L-asparaginyl-L-seryl-L-valyl-glycine-3-hydroxypropylamide] (H-D[2Nal]NSVG-{NH(3-hydroxypropyl)}) has an IC50 [2] of 490 nM and an IC50 [1] of 380 nM.

`CC(C)[C@H](NC(=O)[C@H](C)NC(=O)[C@H](CC(N)=O)NC(=O)[C@H](Cc1ccc2ccccc2c1)NC(=O)[C@@H](N)CC(=O)O)C(=O)NCC(=O)NCCCO` [Compound 5, L-Aspartyl-L-3-(2-naphthyl)alanyl-L-asparaginyl-L-alanyl-L-valyl-glycine-3-hydroxypropylamide] (H-D[2Nal]NAVG-{NH(3-hydroxypropyl)}) showed an IC50 [2] of 370 nM and an IC50 [1] of 750 nM.

For `CC[C@H](C)[C@H](NC(=O)[C@H](CC(=O)O)NC(=O)[C@H](CC(N)=O)NC(=O)[C@H](Cc1ccc2ccccc2c1)NC(=O)[C@@H](N)CC(=O)O)C(=O)NCC(=O)NCCCO` [Compound 6] (H-D[2Nal]NDIG-{NH(3-hydroxypropyl)}), the IC50 [2] was 640 nM and the IC50 [1] was 1380 nM.

With `CC[C@H](C)[C@H](NC(=O)[C@H](CO)NC(=O)[C@H](CC(N)=O)NC(=O)[C@H](Cc1ccc2ccccc2c1)NC(=O)[C@@H](N)CC(=O)O)C(=O)NCC(=O)NCCCO` [Compound 7, L-Aspartyl-L-3-(2-naphthyl)alanyl-L-asparaginyl-L-seryl-L-isoleucyl-glycine-3-hydroxypropylamide] (H-D[2Nal]NSIG-{NH(3-hydroxypropyl)}) the IC50 [2] was 810 nM and the IC50 [1] was 600 nM.

`CC[C@H](C)[C@H](NC(=O)[C@H](C)NC(=O)[C@H](CC(N)=O)NC(=O)[C@H](Cc1ccc2ccccc2c1)NC(=O)[C@@H](N)CC(=O)O)C(=O)NCC(=O)NCCCO` [Compound 8, L-Aspartyl-L-3-(2-naphthyl)alanyl-L-asparaginyl-L-alanyl-L-isoleucyl-glycine-3-hydroxypropylamide] (H-D[2Nal]NAIG-{NH(3-hydroxypropyl)}) showed an IC50 [2] of 470 nM and an IC50 [1] of 700 nM.

`CC(C)[C@H](NC(=O)[C@H](C)NC(=O)[C@H](CC(N)=O)NC(=O)[C@H](Cc1cccc2ccccc12)NC(=O)[C@@H](N)CC(=O)O)C(=O)NCC(=O)NCCCO` [Compound 9, L-Aspartyl-L-3-(1-naphthyl)alanyl-L-asparaginyl-L-alanyl-L-valyl-glycine-3-hydroxypropylamide] (H-D[1Nal]NAVG-{NH(3-hydroxypropyl)}) gave an IC50 [1] of 8250 nM.

`CC(C)[C@H](NC(=O)[C@H](C)NC(=O)[C@H](CC(N)=O)NC(=O)[C@H](Cc1c[nH]c2ccccc12)NC(=O)[C@@H](N)CC(=O)O)C(=O)NCC(=O)NCCCO` [Compound 10, L-Aspartyl-L-tryptophanyl-L-asparaginyl-L-alanyl-L-valyl-glycine-3-hydroxypropylamide] (H-DWNAVG-{NH(3-hydroxypropyl)}) was tested, and the IC50 [1] was 8570 nM.

For `CC(C)[C@H](NC(=O)[C@H](C)NC(=O)[C@H](CC(N)=O)NC(=O)[C@H](Cc1ccccc1)NC(=O)[C@@H](N)CC(=O)O)C(=O)NCC(=O)NCCCO` [Compound 11, L-Aspartyl-L-phenylalanyl-L-asparaginyl-L-alanyl-L-valyl-glycine-3-hydroxypropylamide] (H-DFNAVG-{NH(3-hydroxypropyl)}), the IC50 [1] was 3380 nM.

`CC(C)[C@H](NC(=O)[C@H](C)NC(=O)[C@H](CC(N)=O)NC(=O)[C@H](Cc1ccc(O)cc1)NC(=O)[C@@H](N)CC(=O)O)C(=O)NCC(=O)NCCCO` [Compound 12, L-Aspartyl-L-tyrosyl-L-asparaginyl-L-alanyl-L-valyl-glycine-3-hydroxypropylamide] (H-DYNAVG-{NH(3-hydroxypropyl)}) was tested, and the IC50 [1] was 3790 nM.

With `CC(C)[C@H](NC(=O)[C@H](C)NC(=O)[C@H](CC(N)=O)NC(=O)[C@H](Cc1csc2ccccc12)NC(=O)[C@@H](N)CC(=O)O)C(=O)NCC(=O)NCCCO` [Compound 13, L-Aspartyl-L-3-(3-benzothienyl)alanyl-L-asparaginyl-L-alanyl-L-valyl-glycine-3-hydroxypropylamide] (H-D[Bta]NAVG-{NH(3-hydroxypropyl)}) the IC50 [1] was 7030 nM.

`CC(C)[C@H](NC(=O)[C@H](C)NC(=O)[C@H](CC(N)=O)NC(=O)[C@H](Cc1ccc(-c2ccccc2)cc1)NC(=O)[C@@H](N)CC(=O)O)C(=O)NCC(=O)NCCCO` [Compound 14, L-Aspartyl-L-3-(4-biphenyl)alanyl-L-asparaginyl-L-alanyl-L-valyl-glycine-3-hydroxypropylamide] (H-D[Bip]NAVG-{NH(3-hydroxypropyl)}) was tested, and the IC50 [1] was 940 nM.
